Laboratory results as given in publication PMC3996151, “Safety and pharmacological characterization of the molecular tweezer CLR01 – a broad-spectrum inhibitor of amyloid proteins’ toxicity” (BMC Pharmacology & Toxicology, 2014).

Assays:
[1] = In vitro dephosphorylation by brain homogenate (inorganic phosphate release); type: in vitro ADME, mouse; conditions: positive control substrate, 1.5 mg mouse-brain homogenate
Description: Potential dephosphorylation of CLR01 was analyzed by incubating 100 nmol CLR01 with 0.08 units of alkaline phosphatase (ALP; calf intestinal alkaline phosphatase, Promega, Madison, Wisconsin) for 60 min at 60°C. One enzymatic unit is defined as the amount of enzyme required for catalyzing the hydrolysis of 1 μmol of p-nitrophenylphosphate per minute. p-Nitrophenylphosphate disodium salt at 5–50 nmol (Fisher, Waltham, Massachusetts) was used for generation of a standard curve. The amount of inorganic phosphate generated was measured spectrophotometrically using an EnzChek Phosphate Assay kit (Life Technologies, Carlsbad, California) according to the manufacturer’s instructions on a DU-640 spectrophotometer (Beckman Coulter, Brea, California) at λ = 360 nm. Baseline values were subtracted from readings and compared to the standard curve resulting from serial ALP reactions to calculate the amount of inorganic phosphate. Similarly, potential dephosphorylation of CLR01 by brain homogenates was measured. For these experiments, one brain hemisphere was homogenized by sonication in the presence of cOmplete protease-inhibitor cocktail (Roche, Penzberg, Germany). Protein concentration was measured using a BCA Protein Assay Kit (Pierce, Rockford, Illinois). […]

[2] = Solubility in aqueous solutions; type: physicochemical

Dephosphorylation by brain homogenate, % of the activity of 0.8 enzymatic units of ALP [1] | Compound | Solubility in aqueous solutions [2]
99 - 130% | O=[N+]([O-])c1ccc(OP(=O)(O)O)cc1 [p-nitrophenylphosphate, reference compound] | –
– | O=P(O)(O)Oc1c2c(c(O)c3c1C1CC3c3cc4c(cc31)C1CC4c3ccccc31)C1CC2c2cc3c(cc21)C1CC3c2ccccc21 [monophosphate metabolite] | soluble at millimolar concentrations
